Source: ChEMBL document CHEMBL5723582, “Data for DCP probe T-10430” (2024)

Legend:
Conditions in all cases: Compound concentration 1.0 uM
[1] = molecular target: C3a anaphylatoxin chemotactic receptor (Homo sapiens) (UniProt Q16581); experiment: RLU of C3AR1 at 1.0 µM in the […] PRESTO-Tango GPCRome screen
[2] = molecular target: Calcitonin receptor (Homo sapiens) (UniProt P30988); experiment: RLU of CALCRb at 1.0 µM in the […] PRESTO-Tango GPCRome screen
[3] = molecular target: C-C chemokine receptor type 5 (Homo sapiens) (UniProt P51681); experiment: RLU of CCR5 at 1.0 µM in the […] PRESTO-Tango GPCRome screen
[4] = molecular target: C-C chemokine receptor type 6 (Homo sapiens) (UniProt P51684); experiment: RLU of CCR6 at 1.0 µM in the […] PRESTO-Tango GPCRome screen
[5] = molecular target: C-C chemokine receptor type 7 (Homo sapiens) (UniProt P32248); experiment: RLU of CCR7 at 1.0 µM in the […] PRESTO-Tango GPCRome screen
[6] = molecular target: Muscarinic acetylcholine receptor M2 (Homo sapiens) (UniProt P08172); experiment: RLU of CHRM2 at 1.0 µM in the […] PRESTO-Tango GPCRome screen
[7] = molecular target: Corticotropin-releasing factor receptor 1 (Homo sapiens) (UniProt P34998); experiment: RLU of CRHR1 at 1.0 µM in the […] PRESTO-Tango GPCRome screen
[8] = molecular target: C-X-C chemokine receptor type 4 (Homo sapiens) (UniProt P61073); experiment: RLU of CXCR4 at 1.0 µM in the […] PRESTO-Tango GPCRome screen
[9] = molecular target: Proteinase-activated receptor 1 (Homo sapiens) (UniProt P25116); experiment: RLU of F2R at 1.0 µM in the […] PRESTO-Tango GPCRome screen
[10] = molecular target: Follicle-stimulating hormone receptor (Homo sapiens) (UniProt P23945); experiment: RLU of FSHR at 1.0 µM in the […] PRESTO-Tango GPCRome screen
[11] = molecular target: Galanin receptor type 3 (Homo sapiens) (UniProt O60755); experiment: RLU of GAL3 at 1.0 µM in the […] PRESTO-Tango GPCRome screen
[12] = molecular target: Growth hormone secretagogue receptor type 1 (Homo sapiens) (UniProt Q92847); experiment: RLU of GHSR at 1.0 µM in the […] PRESTO-Tango GPCRome screen
[13] = molecular target: Glucagon-like peptide 1 receptor (Homo sapiens) (UniProt P43220); experiment: RLU of GLP1R at 1.0 µM in the […] PRESTO-Tango GPCRome screen
[14] = molecular target: Adhesion G protein-coupled receptor D2 (Homo sapiens) (UniProt Q7Z7M1); experiment: RLU of GPR144 at 1.0 µM in the […] PRESTO-Tango GPCRome screen
[15] = molecular target: Probable G-protein coupled receptor 32 (Homo sapiens) (UniProt O75388); experiment: RLU of GPR32 at 1.0 µM in the […] PRESTO-Tango GPCRome screen
[16] = molecular target: G-protein coupled receptor 39 (Homo sapiens) (UniProt O43194); experiment: RLU of GPR39 at 1.0 µM in the […] PRESTO-Tango GPCRome screen
[17] = molecular target: Probable G-protein coupled receptor 63 (Homo sapiens) (UniProt Q9BZJ6); experiment: RLU of GPR63 at 1.0 µM in the […] PRESTO-Tango GPCRome screen
[18] = molecular target: Probable G-protein coupled receptor 75 (Homo sapiens) (UniProt O95800); experiment: RLU of GPR75 at 1.0 µM in the […] PRESTO-Tango GPCRome screen
[19] = molecular target: Probable G-protein coupled receptor 82 (Homo sapiens) (UniProt Q96P67); experiment: RLU of GPR82 at 1.0 µM in the […] PRESTO-Tango GPCRome screen
[20] = molecular target: G-protein coupled receptor family C group 5 member B (Homo sapiens) (UniProt Q9NZH0); experiment: RLU of GPRC5B at 1.0 µM in the […] PRESTO-Tango GPCRome screen
[21] = molecular target: Metabotropic glutamate receptor 4 (Homo sapiens) (UniProt Q14833); experiment: RLU of GRM4 at 1.0 µM in the Aequorin PRESTO-Tango GPCRome screen
[22] = molecular target: 5-hydroxytryptamine receptor 2C (Homo sapiens) (UniProt P28335); experiment: RLU of HTR2C at 1.0 µM in the […] PRESTO-Tango GPCRome screen
[23] = molecular target: Lysophosphatidic acid receptor 2 (Homo sapiens) (UniProt Q9HBW0); experiment: RLU of LPAR2 at 1.0 µM in the […] PRESTO-Tango GPCRome screen
[24] = molecular target: Melanocortin receptor 5 (Homo sapiens) (UniProt P33032); experiment: RLU of MC5R at 1.0 µM in the […] PRESTO-Tango GPCRome screen
[25] = molecular target: Melanin-concentrating hormone receptor 2 (Homo sapiens) (UniProt Q969V1); experiment: RLU of MCHR2 at 1.0 µM in the […] PRESTO-Tango GPCRome screen
[26] = molecular target: Neuromedin-B receptor (Homo sapiens) (UniProt P28336); experiment: RLU of NMBR at 1.0 µM in the […] PRESTO-Tango GPCRome screen
[27] = molecular target: 2-oxoglutarate receptor 1 (Homo sapiens) (UniProt Q96P68); experiment: RLU of OXGR1 at 1.0 µM in the […] PRESTO-Tango GPCRome screen
[28] = molecular target: Oxytocin receptor (Homo sapiens) (UniProt P30559); experiment: RLU of OXTR at 1.0 µM in the […] PRESTO-Tango GPCRome screen
[29] = molecular target: Putative P2Y purinoceptor 10 (Homo sapiens) (UniProt O00398); experiment: RLU of P2RY10 at 1.0 µM in the […] PRESTO-Tango GPCRome screen
[30] = molecular target: P2Y purinoceptor 13 (Homo sapiens) (UniProt Q9BPV8); experiment: RLU of P2RY13 at 1.0 µM in the […] PRESTO-Tango GPCRome screen
[31] = molecular target: Prolactin-releasing peptide receptor (Homo sapiens) (UniProt P49683); experiment: RLU of PRRP at 1.0 µM in the […] PRESTO-Tango GPCRome screen
[32] = molecular target: Platelet-activating factor receptor (Homo sapiens) (UniProt P25105); experiment: RLU of PTAFR at 1.0 µM in the […] PRESTO-Tango GPCRome screen
[33] = molecular target: Relaxin receptor 1 (Homo sapiens) (UniProt Q9HBX9); experiment: RLU of RXFP1 at 1.0 µM in the […] PRESTO-Tango GPCRome screen
[34] = molecular target: Trace amine-associated receptor 8 (Homo sapiens) (UniProt Q969N4); experiment: RLU of TAAR8 at 1.0 µM in the […] PRESTO-Tango GPCRome screen
[35] = molecular target: Substance-P receptor (Homo sapiens) (UniProt P25103); experiment: RLU of TACR1 at 1.0 µM in the […] PRESTO-Tango GPCRome screen
[36] = molecular target: Thyrotropin receptor (Homo sapiens) (UniProt P16473); experiment: RLU of TSHR at 1.0 µM in the […] PRESTO-Tango GPCRome screen
Thyrotropin receptor (Homo sapiens), sequence (P16473 whole entry): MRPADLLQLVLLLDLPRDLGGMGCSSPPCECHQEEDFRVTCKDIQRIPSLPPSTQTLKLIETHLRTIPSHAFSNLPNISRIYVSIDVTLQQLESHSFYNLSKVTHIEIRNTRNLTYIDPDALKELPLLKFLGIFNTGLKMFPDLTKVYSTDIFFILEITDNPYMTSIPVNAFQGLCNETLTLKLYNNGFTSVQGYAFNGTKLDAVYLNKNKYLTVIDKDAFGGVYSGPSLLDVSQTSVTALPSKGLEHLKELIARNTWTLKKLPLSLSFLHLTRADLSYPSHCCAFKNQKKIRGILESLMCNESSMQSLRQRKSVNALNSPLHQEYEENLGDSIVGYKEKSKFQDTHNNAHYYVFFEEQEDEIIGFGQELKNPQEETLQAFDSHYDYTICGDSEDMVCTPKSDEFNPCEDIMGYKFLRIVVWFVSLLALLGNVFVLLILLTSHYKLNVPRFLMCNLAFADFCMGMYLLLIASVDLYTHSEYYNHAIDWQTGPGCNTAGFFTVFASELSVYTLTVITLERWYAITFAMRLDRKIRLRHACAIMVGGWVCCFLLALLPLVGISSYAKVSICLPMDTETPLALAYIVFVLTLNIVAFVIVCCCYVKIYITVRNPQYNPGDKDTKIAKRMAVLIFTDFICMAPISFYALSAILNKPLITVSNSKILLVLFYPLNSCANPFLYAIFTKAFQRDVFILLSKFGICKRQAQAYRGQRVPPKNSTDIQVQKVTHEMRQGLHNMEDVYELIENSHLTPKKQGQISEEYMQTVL

2-oxoglutarate receptor 1 (Homo sapiens), sequence (Q96P68 whole entry, looked up): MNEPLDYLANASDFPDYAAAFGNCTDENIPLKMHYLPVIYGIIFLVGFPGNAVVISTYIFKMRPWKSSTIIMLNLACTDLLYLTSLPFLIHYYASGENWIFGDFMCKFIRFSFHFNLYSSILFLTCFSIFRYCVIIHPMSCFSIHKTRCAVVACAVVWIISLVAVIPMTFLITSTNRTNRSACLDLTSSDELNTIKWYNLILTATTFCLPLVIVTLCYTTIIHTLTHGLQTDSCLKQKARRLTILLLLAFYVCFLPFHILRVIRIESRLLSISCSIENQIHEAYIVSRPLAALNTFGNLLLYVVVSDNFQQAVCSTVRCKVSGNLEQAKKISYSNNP
Probable G-protein coupled receptor 75 (Homo sapiens), sequence (O95800 whole entry): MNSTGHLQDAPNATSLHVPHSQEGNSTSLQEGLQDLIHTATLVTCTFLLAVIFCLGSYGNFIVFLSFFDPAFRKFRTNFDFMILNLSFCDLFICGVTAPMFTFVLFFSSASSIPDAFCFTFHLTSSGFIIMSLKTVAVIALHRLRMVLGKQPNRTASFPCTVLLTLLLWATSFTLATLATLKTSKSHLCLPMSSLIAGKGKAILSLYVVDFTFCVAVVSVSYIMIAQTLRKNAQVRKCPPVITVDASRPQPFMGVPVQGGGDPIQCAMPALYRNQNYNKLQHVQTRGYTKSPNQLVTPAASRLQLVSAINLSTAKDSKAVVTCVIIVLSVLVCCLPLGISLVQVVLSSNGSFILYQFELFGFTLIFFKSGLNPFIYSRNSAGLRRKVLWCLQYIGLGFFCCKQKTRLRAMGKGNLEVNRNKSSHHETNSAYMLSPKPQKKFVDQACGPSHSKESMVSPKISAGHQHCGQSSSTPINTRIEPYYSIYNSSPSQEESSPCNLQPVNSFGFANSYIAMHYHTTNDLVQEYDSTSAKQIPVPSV
P2Y purinoceptor 13 (Homo sapiens), sequence (Q9BPV8 whole entry): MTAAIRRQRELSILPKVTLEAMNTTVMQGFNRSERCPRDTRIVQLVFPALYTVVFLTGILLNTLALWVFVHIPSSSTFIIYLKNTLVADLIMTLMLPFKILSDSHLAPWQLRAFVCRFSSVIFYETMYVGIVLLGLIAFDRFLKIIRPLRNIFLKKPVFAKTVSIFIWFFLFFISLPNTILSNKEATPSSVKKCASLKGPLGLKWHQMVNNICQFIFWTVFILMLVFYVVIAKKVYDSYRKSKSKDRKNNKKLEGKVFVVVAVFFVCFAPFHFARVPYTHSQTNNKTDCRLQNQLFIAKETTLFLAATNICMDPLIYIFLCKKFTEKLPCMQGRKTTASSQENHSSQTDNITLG
Proteinase-activated receptor 1 (Homo sapiens), sequence (P25116 whole entry): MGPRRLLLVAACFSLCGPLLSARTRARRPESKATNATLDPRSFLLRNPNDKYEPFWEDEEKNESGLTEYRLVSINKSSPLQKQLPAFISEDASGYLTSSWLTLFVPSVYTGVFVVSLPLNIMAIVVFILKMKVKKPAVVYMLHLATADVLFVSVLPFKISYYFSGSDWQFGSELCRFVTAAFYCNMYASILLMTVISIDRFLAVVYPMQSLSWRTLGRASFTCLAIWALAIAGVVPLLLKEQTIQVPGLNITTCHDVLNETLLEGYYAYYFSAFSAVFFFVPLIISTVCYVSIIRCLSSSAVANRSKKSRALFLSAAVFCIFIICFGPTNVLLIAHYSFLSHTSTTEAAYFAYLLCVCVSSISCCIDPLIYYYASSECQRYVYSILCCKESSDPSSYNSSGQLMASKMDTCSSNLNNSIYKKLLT
Growth hormone secretagogue receptor type 1 (Homo sapiens), sequence (Q92847 whole entry): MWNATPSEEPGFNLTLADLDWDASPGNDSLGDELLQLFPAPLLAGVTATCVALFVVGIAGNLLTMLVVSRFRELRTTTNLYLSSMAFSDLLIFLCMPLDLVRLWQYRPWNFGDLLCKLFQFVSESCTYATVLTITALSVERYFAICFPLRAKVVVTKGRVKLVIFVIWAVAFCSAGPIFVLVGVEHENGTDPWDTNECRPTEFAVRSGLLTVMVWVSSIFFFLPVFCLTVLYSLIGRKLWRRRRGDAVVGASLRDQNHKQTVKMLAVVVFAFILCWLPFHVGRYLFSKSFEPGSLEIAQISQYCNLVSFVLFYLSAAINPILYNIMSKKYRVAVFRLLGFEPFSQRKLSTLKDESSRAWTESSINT
Probable G-protein coupled receptor 82 (Homo sapiens), sequence (Q96P67 whole entry): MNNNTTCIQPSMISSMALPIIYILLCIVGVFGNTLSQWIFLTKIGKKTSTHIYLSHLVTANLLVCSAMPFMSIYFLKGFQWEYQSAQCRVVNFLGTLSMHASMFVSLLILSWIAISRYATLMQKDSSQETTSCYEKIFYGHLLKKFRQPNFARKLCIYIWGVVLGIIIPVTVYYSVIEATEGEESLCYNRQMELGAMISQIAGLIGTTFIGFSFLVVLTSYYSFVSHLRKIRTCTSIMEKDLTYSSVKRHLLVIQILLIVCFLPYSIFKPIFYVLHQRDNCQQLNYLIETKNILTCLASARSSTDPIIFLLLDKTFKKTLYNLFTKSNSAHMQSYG
Lysophosphatidic acid receptor 2 (Homo sapiens), sequence (Q9HBW0 whole entry): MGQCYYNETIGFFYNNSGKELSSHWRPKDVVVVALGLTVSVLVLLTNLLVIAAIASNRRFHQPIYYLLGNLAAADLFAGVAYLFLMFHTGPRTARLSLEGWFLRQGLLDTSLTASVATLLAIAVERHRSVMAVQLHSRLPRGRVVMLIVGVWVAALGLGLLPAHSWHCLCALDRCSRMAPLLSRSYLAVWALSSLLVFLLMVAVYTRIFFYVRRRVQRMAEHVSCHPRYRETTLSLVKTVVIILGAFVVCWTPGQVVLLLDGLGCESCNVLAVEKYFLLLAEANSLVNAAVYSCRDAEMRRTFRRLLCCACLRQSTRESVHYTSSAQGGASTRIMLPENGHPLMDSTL
C-C chemokine receptor type 7 (Homo sapiens), sequence (P32248 whole entry): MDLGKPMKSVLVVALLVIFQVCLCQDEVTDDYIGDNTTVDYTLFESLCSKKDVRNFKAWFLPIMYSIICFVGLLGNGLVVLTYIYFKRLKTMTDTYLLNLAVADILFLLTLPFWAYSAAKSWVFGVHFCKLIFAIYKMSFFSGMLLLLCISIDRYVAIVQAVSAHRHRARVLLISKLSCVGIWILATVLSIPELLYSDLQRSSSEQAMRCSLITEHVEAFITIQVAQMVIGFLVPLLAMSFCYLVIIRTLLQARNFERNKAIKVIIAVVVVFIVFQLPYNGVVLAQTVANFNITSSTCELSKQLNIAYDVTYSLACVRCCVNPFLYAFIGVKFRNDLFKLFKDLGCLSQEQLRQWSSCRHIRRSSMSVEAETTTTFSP
Oxytocin receptor (Homo sapiens), sequence (P30559 whole entry): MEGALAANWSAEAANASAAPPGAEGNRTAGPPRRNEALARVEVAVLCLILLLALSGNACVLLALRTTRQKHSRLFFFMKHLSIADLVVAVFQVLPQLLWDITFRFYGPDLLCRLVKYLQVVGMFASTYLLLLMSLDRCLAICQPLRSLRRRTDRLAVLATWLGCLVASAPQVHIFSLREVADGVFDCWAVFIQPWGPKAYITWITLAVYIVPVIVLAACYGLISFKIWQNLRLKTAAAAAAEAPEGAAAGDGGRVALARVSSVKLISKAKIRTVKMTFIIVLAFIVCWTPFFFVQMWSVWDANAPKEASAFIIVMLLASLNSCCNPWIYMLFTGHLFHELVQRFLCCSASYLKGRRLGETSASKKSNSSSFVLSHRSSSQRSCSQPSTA
Prolactin-releasing peptide receptor (Homo sapiens), sequence (P49683 whole entry): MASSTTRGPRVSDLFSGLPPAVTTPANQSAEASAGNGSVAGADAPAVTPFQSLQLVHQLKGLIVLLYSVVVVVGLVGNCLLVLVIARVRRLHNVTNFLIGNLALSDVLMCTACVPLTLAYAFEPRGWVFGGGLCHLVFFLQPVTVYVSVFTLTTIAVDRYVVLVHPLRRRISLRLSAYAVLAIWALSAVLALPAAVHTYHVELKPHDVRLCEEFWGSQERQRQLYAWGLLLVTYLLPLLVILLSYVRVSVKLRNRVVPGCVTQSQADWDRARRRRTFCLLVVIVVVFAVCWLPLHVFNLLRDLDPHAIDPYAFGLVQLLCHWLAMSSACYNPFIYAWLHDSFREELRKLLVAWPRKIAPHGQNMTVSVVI
Melanin-concentrating hormone receptor 2 (Homo sapiens), sequence (Q969V1 whole entry): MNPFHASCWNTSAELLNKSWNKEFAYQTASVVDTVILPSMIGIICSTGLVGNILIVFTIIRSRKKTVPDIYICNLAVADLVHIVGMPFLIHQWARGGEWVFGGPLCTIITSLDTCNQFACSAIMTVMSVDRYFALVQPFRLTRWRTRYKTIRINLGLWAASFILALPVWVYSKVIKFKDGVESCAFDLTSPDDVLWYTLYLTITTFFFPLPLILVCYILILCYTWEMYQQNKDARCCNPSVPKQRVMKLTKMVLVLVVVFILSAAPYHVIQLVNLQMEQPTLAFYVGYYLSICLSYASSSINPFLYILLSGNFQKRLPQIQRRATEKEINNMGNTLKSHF

Q: Which results are given for CCCCC(=O)N1CC2(C1)CN(c1ccccc1-c1nnn[nH]1)C2?
A: RLU [1]: 4830; RLU [2]: -5810; RLU [3]: 2710; RLU [4]: -2060; RLU [5]: 342; RLU [6]: -12800; RLU [7]: 5080; RLU [8]: -831; RLU [9]: 1350; RLU [10]: -865; RLU [11]: -1500; RLU [12]: 1260; RLU [13]: 3480; RLU [14]: 917; RLU [15]: 5660; RLU [16]: 8020; RLU [17]: -87.9; RLU [18]: 868; RLU [19]: -8050; RLU [20]: -3640; RLU [21]: -82.8; RLU [22]: 1050; RLU [23]: -80; RLU [24]: 481; RLU [25]: 1.74; RLU [26]: 937; RLU [27]: -826; RLU [28]: -479; RLU [29]: -82.4; RLU [30]: 10100; RLU [31]: 4140; RLU [32]: 82.9; RLU [33]: -1130; RLU [34]: -4860; RLU [35]: -4720; RLU [36]: -406
